Measurements as given in PMC12543283, “TastepepAI: An artificial intelligence platform for taste peptide de novo design” (PLOS Computational Biology, 2025).
Where “and” joins values, the source holds several entries; their conditions need not be identical. Equal values may be shown once. Ends that are not written are not given here.

How the values were obtained:
[1] = test system: human umbilical vein endothelial cells (HUVEC)
[2] = Electronic tongue analysis (Taste-Sensing System SA 402B); set-up: unit not given here; conditions: reference solution 30 mM KCl + 0.3 mM tartaric acid as baseline, first measurement excluded; for Umami: sensor AAE; for Umami / Bitter / Sweet: detection threshold 0, room temperature; for Umami / Bitter / Sour / Salty: four replicates; for Sour: detection threshold -13, room temperature; for Salty: detection threshold -6, room temperature; for Sweet: measured five times
Protocol: Taste characteristics were analyzed using the electronic tongue system E-tongue (Taste-Sensing System SA 402B, Intelligent Sensor Technology Co. Ltd., Japan). The system was equipped with five specific sensor probes for detecting sourness (CA0), saltiness (CT0), bitterness (C00), sweetness (GL1), and umami (AAE). Samples were tested at concentrations of 0.1 mg/mL and 1.0 mg/mL. Prior to experiments, sensors were activated by immersion in a reference solution (30 mM KCl and 0.3 mM tartaric acid) for 24 h. A 30 min self-diagnostic procedure was performed before each measurement to ensure data accuracy. The reference solution served both as a cleaning solution and standard solution for taste signal calibration. According to the manufacturer’s instructions, using the reference solution as baseline, the detection thresholds were set at −13 for sourness, −6 for saltiness, and 0 for other taste modalities. Two cleaning solutions were employed for electrode maintenance: (1) 30% ethanol solution containing 100 mM HCl for negative charge reference electrodes, and (2) 30% ethanol solution containing 100 mM KCl and 10 mM KOH for positive charge reference electrodes. All taste measurements were performed at room temperature with four replicates, except for sweetness which was measured five times. The first measurement data were excluded from analysis.

[3] = test system: human embryonic kidney cells (HEK293T)
[4] = test system: human bronchial epithelial cells (BEAS-2B)
[5] = test system: human pancreatic ductal epithelial cells (HPNE)

| Substance | Average cell viability, HUVEC [1] | Cell viability, HUVEC, Data1 [1] | Cell viability, HUVEC, Data2 [1] | Cell viability, HUVEC, Data3 [1] | Umami ([2]; peptide 0.1 mg/mL) | Umami ([2]; peptide 1 mg/mL) | Bitter ([2]; sensor C00, peptide 0.1 mg/mL) | Bitter ([2]; sensor C00, peptide 1 mg/mL) | Sour ([2]; sensor CA0, peptide 0.1 mg/mL) | Sour ([2]; sensor CA0, peptide 1 mg/mL) | Salty ([2]; sensor CT0, peptide 0.1 mg/mL) | Salty ([2]; sensor CT0, peptide 1 mg/mL) | Sweet ([2]; sensor GL1, peptide 0.1 mg/mL) | Sweet ([2]; sensor GL1, peptide 1 mg/mL) | Average cell viability, HEK293T [3] | Cell viability, HEK293T, Data1 [3] | Cell viability, HEK293T, Data2 [3] | Cell viability, HEK293T, Data3 [3] | Average cell viability, BEAS-2B [4] | Cell viability, BEAS-2B, Data1 [4] | also measured |
| --- | --- | --- | --- | --- | --- | --- | --- | --- | --- | --- | --- | --- | --- | --- | --- | --- | --- | --- | --- | --- | --- |
| YAGNAP [TaPep10] | 102.47 | 99.31 | 104.50 | 103.62 | 3.61 | -3.37 | 6.97 | bitterness suppression and -0.80 | -8.60 | 8.97 | -20.44 | 14.02 | 11.07 | -4.53 | 99.40 | 94.83 | 102.87 | 100.50 | 98.84 | 101.69 | Cell viability, BEAS-2B, Data2 [4]: 95.01; Cell viability, BEAS-2B, Data3 [4]: 99.80; Average cell viability, HPNE [5]: 95.54; Cell viability, HPNE, Data1 [5]: 97.18; Cell viability, HPNE, Data2 [5]: 94.47; Cell viability, HPNE, Data3 [5]: 94.97 |
| VEKVE [TaPep67] | 100.75 | 112.48 | 97.95 | 91.80 | 1.99 | -4.10 | 7.39 | 4.01 | -4.19 | 10.40 | -19.59 | 9.82 | 6.41 | -3.54 | 100.22 | 99.37 | 105.99 | 95.30 | 110.54 | 94.32 | Cell viability, BEAS-2B, Data2 [4]: 118.94; Cell viability, BEAS-2B, Data3 [4]: 118.34; Average cell viability, HPNE [5]: 96.14; Cell viability, HPNE, Data1 [5]: 105.92; Cell viability, HPNE, Data2 [5]: 99.23; Cell viability, HPNE, Data3 [5]: 83.26 |
| EFPEQN [TaPep17] | 96.70 | 94.76 | 94.12 | 101.22 | 1.17 | -5.94 | 7.25 | 3.52 | -2.22 | 14.54 | -21.65 | -0.53 | 5.23 | -5.15 | 98.68 | 94.45 | 102.97 | 98.61 | 109.94 | 112.36 | Cell viability, BEAS-2B, Data2 [4]: 107.58; Cell viability, BEAS-2B, Data3 [4]: 109.87; Average cell viability, HPNE [5]: 92.31; Cell viability, HPNE, Data1 [5]: 86.66; Cell viability, HPNE, Data2 [5]: 92.25; Cell viability, HPNE, Data3 [5]: 98.04 |
| KTYSA [TaPep49] | 102.29 | 99.15 | 103.94 | 103.78 | 0.96 | -3.34 | 7.26 | 2.53 | -7.10 | 8.30 | -15.59 | 11.00 | 7.69 | -3.73 | 96.97 | 99.94 | 94.54 | 96.44 | 100.60 | 99.20 | Cell viability, BEAS-2B, Data2 [4]: 96.41; Cell viability, BEAS-2B, Data3 [4]: 106.18; Average cell viability, HPNE [5]: 94.58; Cell viability, HPNE, Data1 [5]: 82.96; Cell viability, HPNE, Data2 [5]: 86.76; Cell viability, HPNE, Data3 [5]: 114.01 |
